Laboratory results published in US12583818B2 (DAEGU-GYEONGBUK MEDICAL INNOVATION FOUNDATION, priority 2020, dated 2026).
Like-named read-outs stand apart in the source and are kept apart here.

Assays:
[1] = tested on: A2780-SP cells (ovarian cancer stem cells); assay: Sphere cell viability of A2780-SP cells (Cell-titer Glo); format: cell-based
Experimental: (§1) In order to confirm the inhibitory effect of the compound represented by formula 1 according to the present invention on the growth of MCF7, MCF7-SP, A2780 or A2780-SP cells, the following experiment was performed, and the results are shown in Tables 4 and 5 below.
On the other hand, A2780-SP cells (ovarian cancer stem cells) were plated in an Ultra-Low Attachment round bottom 96-well plate (corning) at the density of 1,500 viable cells per well, and cultured in cancer stem cell medium. The cancer stem cell medium is composed of the neurobasal medium supplemented with 20 ng/ml of bFGF, 10 ng/ml of EGF, […] of amphotericin B, HEPES, Glutamax and B27.
On the next day of culture, the cells were treated with the compound of Examples 57, and 69 to 144, followed by culture for 8 days. The medium containing the compound was added thereto once again on the 4th day. Sphere cell viability was evaluated by Cell-titer Glo (Promega, WC, USA), and luciferase activity was detected using a Tecan plate reader (Biocompare, USA).

Pin1 = target: T1, Pin1 (Homo sapiens, UniProt Q13526); assay: Evaluation of Pin1 enzyme inhibitory activity (Sensolyte Green Pin1 assay kit); format: biochemical
T1 construct: purchased Anaspec
Method in brief: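 Pin1 activity was measured with a fluorogenic kit assay (Sensolyte Green) using substrate prepared at 1 μM and protein at 50 μg/ml, both pre-mix concentrations. Compound working solutions were 100, 10, 1 or 0.1 μM, and reactions ran 2 h at room temperature in the dark, read at 490/520 nm. Inhibition was graded A–D by concentration.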

[2] = tested on: A2780 cells (ovarian cancer cells); assay: Cell viability of A2780 cells (Cell-titer Glo); format: cell-based; conditions: Homo sapiens
Experimental: as §1
In addition, A2780 cells (ovarian cancer cells) were plated in a 96-well plate at the density of 3000 viable cells per well, and cultured in RPMI-1640 medium supplemented with 10% FBS and 1% penicillin/streptomycin.
On the next day of culture, the cells were treated with the compound of Examples 57, and 69 to 144, followed by culture for 3 days. Cell viability was evaluated by Cell-titer Glo (Promega, WC, USA), and luciferase activity was detected using a Tecan plate reader (Biocompare, USA).

[3] = 192 h, sphere cell viability, culture for 8 days, read-out: A2780-SP
[4] = Table 5, read-out: the concentration (second list of b710, cell line not named; matches A2780-SP column)
[5] = Table 2, read-out: concentration at which Pin1 inhibitory activity was exhibited
[6] = concentration at which the Pin1 enzyme activity is inhibited, 2 hours at room temperature, fluorescence 490 nm/520 nm, read-out: Pin 1 inhibition
[7] = 72 h, cell viability, culture for 3 days, read-out: A2780
[8] = A2780, Table 5, read-out: A2780 cell concentration

T1 sequence (Q13526 whole entry): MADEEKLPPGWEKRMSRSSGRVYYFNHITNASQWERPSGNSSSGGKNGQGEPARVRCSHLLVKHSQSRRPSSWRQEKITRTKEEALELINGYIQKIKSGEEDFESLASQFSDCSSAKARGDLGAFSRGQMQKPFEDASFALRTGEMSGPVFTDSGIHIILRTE

| SMILES | IC50 [1, 3] [nM] | IC50 [1, 4] [nM] | IC50 (Pin1; [5]) [nM] | IC50 (Pin1; [6]) [nM] | IC50 [2, 7] [nM] | IC50 [2, 8] [nM] |
| --- | --- | --- | --- | --- | --- | --- |
| CN1CCN(CCCOc2ccc(S(=O)(=O)NCCc3c[nH]c4ccc(Cl)cc34)cc2)CC1 [Example 158, N-(2-(5-chloro-1H-indol-3-yl)ethyl)-4-(3-(4-methylpiperazin-1-yl)propoxy)benzenesulfonamide] | < 1000 | < 1000 | < 1000 | < 1000 | > 10000 |  |
| O=S(=O)(NCCc1c[nH]c2ccc(Cl)cc12)c1ccc(OCCCN2CCNCC2)cc1 [Example 159, N-(2-(5-chloro-1H-indol-3-yl)ethyl)-4-(3-(piperazin-1-yl)propoxy)benzenesulfonamide] | < 1000 | < 1000 | < 1000 | < 1000 | > 10000 |  |
| O=S(=O)(NCCCc1c[nH]c2ccc(Cl)cc12)c1ccc(OCCCn2cncn2)cc1 [Example 160, 4-(3-(1H-1,2,4-triazol-1-yl)propoxy)-N-(3-(5-chloro-1H-indol-3-yl)propyl)benzenesulfonamide] | > 10000 |  | < 1000 | < 1000 | > 10000 |  |
| Cc1nccn1CCCOc1ccc(S(=O)(=O)NCCCc2c[nH]c3ccc(Cl)cc23)cc1 [Example 161, N-(3-(5-chloro-1H-indol-3-yl)propyl)-4-(3-(2-methyl-1H-imidazol-1-yl)propoxy)benzenesulfonamide] | < 1000 | < 1000 | < 1000 | < 1000 | > 10000 |  |
| O=S(=O)(NCCCc1c[nH]c2c(Cl)cc(Cl)cc12)c1ccc(OCCCN2CCNCC2)cc1 [Example 164, N-(3-(5,7-dichloro-1H-indol-3-yl)propyl)-4-(3-(piperazin-1-yl)propoxy)benzenesulfonamide] | < 1000 | < 1000 | < 1000 | < 1000 | 1000 to 10000 | < 10000 |
| CN1CCN(CCCOc2ccc(S(=O)(=O)NCCCc3c[nH]c4c(Cl)cc(Cl)cc34)cc2)CC1 [Example 165, N-(3-(5,7-dichloro-1H-indol-3-yl)propyl)-4-(3-(4-methylpiperazin-1-yl)propoxy)benzenesulfonamide] | < 1000 | < 1000 | < 1000 | < 1000 | 1000 to 10000 | < 10000 |
| O=S(=O)(NCCCc1c[nH]c2ccc(Cl)cc12)c1ccc(OCCCn2cnc(Cl)c2Cl)cc1 [Example 166, N-(3-(5-chloro-1H-indol-3-yl)propyl)-4-(3-(4,5-dichloro-1H-imidazol-1-yl)propoxy)benzenesulfonamide] | 1000 to 10000 |  | < 1000 | < 1000 | > 10000 |  |
| CN1CCN(CCCOc2ccc(S(=O)(=O)NCCCc3n[nH]c4ccc(Cl)cc34)cc2)CC1 [Example 167, N-(3-(5-chloro-1H-indazole-3-yl)propyl)-4-(3-(4-methylpiperazine-1-yl)propoxy)benzenesulfonamide] | < 1000 | < 1000 | < 1000 | < 1000 | 1000 to 10000 | < 10000 |
| O=S(=O)(NCCCc1n[nH]c2ccc(Cl)cc12)c1ccc(OCCCN2CCNCC2)cc1 [Example 168, N-(3-(5-chloro-1H-indazol-3-yl)propyl)-4-(3-(piperazin-1-yl)propoxy)benzenesulfonamide] | < 1000 | < 1000 | < 1000 | < 1000 | > 10000 |  |
| CN1CCN(CCCOc2ccc(S(=O)(=O)NCCCc3c[nH]c4ncc(Cl)cc34)cc2)CC1 [Example 169, N-(3-(5-chloro-1H-pyrrolo[2,3-b]pyridin-3-yl)propyl)-4-(3-(4-methylpiperazin-1-yl)propoxy)benzenesulfonamide] | < 1000 | < 1000 | < 1000 | < 1000 | 1000 to 10000 | < 10000 |
| O=S(=O)(NCCCc1c[nH]c2ncc(Cl)cc12)c1ccc(OCCCN2CCNCC2)cc1 [Example 170, N-(3-(5-chloro-1H-pyrrolo[2,3-b]pyridin-3-yl)propyl)-4-(3-(piperazin-1-yl)propoxy)benzenesulfonamide] | < 1000 | < 1000 | < 1000 | < 1000 | 1000 to 10000 | < 10000 |
| CN1CCN(C[C@@H](O)COc2ccc(S(=O)(=O)NCCCc3c[nH]c4ccc(Cl)cc34)cc2)CC1 [Example 171, (R)—N-(3-(5-chloro-1H-indole-3-yl)propyl)-4-(2-hydroxy-3-(4-methylpiperazine-1-yl)propoxy)benzenesulfonamide] | < 1000 | < 1000 | < 1000 | < 1000 | > 10000 |  |
| O=S(=O)(NCCCc1c[nH]c2ccc(Cl)cc12)c1ccc(OC[C@H](O)CN2CCNCC2)cc1 [Example 172, (R)—N-(3-(5-chloro-1H-indol-3-yl)propyl)-4-(2-hydroxy-3-(piperazin-1-yl)propoxy)benzenesulfonamide] | < 1000 | < 1000 | < 1000 | < 1000 | > 10000 |  |
| CN1CCN(C[C@H](O)COc2ccc(S(=O)(=O)NCCCc3c[nH]c4ccc(Cl)cc34)cc2)CC1 [Example 173, (S)—N-(3-(5-chloro-1H-indol-3-yl)propyl)-4-(2-hydroxy-3-(4-methylpiperazin-1-yl)propoxy)benzenesulfonamide] | < 1000 | < 1000 | < 1000 | < 1000 | 1000 to 10000 | < 10000 |
| O=S(=O)(NCCCc1c[nH]c2ccc(Cl)cc12)c1ccc(OC[C@@H](O)CN2CCNCC2)cc1 [Example 174, (S)—N-(3-(5-chloro-1H-indol-3-yl)propyl)-4-(2-hydroxy-3-(piperazin-1-yl)propoxy)benzenesulfonamide] | < 1000 | < 1000 | < 1000 | < 1000 | > 10000 |  |
| Cc1ncn(CCCOc2ccc(S(=O)(=O)NCCCc3c[nH]c4ccc(Cl)cc34)cc2)c1C [Example 175, N-(3-(5-chloro-1H-indol-3-yl)propyl)-4-(3-(4,5-dimethyl-1H-imidazol-1-yl)propoxy)benzenesulfonamide] | < 1000 | < 1000 | < 1000 | < 1000 | 1000 to 10000 | < 10000 |
| Cc1nc(C)n(CCCOc2ccc(S(=O)(=O)NCCCc3c[nH]c4ccc(Cl)cc34)cc2)c1C [Example 176, N-(3-(5-chloro-1H-indol-3-yl)propyl)-4-(3-(2,4,5-trimethyl-1H-imidazol-1-yl)propoxy)benzenesulfonamide] | < 1000 | < 1000 | < 1000 | < 1000 | 1000 to 10000 | < 10000 |
| CN1CCN(CCCOc2ccc(S(=O)(=O)NCC3CCc4[nH]c5ccc(Cl)cc5c4C3)cc2)CC1 (centres unmarked) [Example 177, N-((6-chloro-2,3,4,9-tetrahydro-1H-carbazole-3-yl)methyl) 4-(3-(4-methylpiperazine-1-yl)propoxy)benzenesulfonamide] | < 1000 | < 1000 | < 1000 | < 1000 | 1000 to 10000 | < 10000 |
| O=S(=O)(NCC1CCc2[nH]c3ccc(Cl)cc3c2C1)c1ccc(OCCCN2CCNCC2)cc1 (centres unmarked) [Example 178, N-((6-chloro-2,3,4,9-tetrahydro-1H-carbazol-3-yl)methyl)-4-(3-(piperazin-1-yl)propoxy)benzenesulfonamide] | < 1000 | < 1000 | < 1000 | < 1000 | 1000 to 10000 | < 10000 |
| O=S(=O)(NCCCc1c[nH]c2cc(Cl)c(Cl)cc12)c1ccc(OCCCN2CCNCC2)cc1 [Example 183, N-(3-(5,6-dichloro-1H-indol-3-yl)propyl)-4-(3-(piperazin-1-yl)propoxy)benzenesulfonamide] | < 1000 | < 1000 | < 1000 | < 1000 | > 10000 |  |
| CN1CCN(CCCOc2ccc(S(=O)(=O)NCCCc3c[nH]c4cc(Cl)c(Cl)cc34)cc2)CC1 [Example 184, N-(3-(5,6-dichloro-1H-indol-3-yl)propyl)-4-(3-(4-methylpiperazin-1-yl)propoxy)benzenesulfonamide] | < 1000 | < 1000 | < 1000 | < 1000 | > 10000 |  |
